{"source": "paper PMC12775434", "about": "“Ultra-large virtual screening unveils potent agonists of the neuromodulatory orphan receptor GPR139” (Nature Communications, 2025)", "format_in_all_cases": "cell-based", "key": {"GPR139 (G12 activation)": {"biological_target": "T1, GPR139 (G12 activation) (Homo sapiens, UniProt Q6DWJ6)", "T1 construct": "expressed in transfected cells; host or cells: HEK293A (transient, Lipofectamine 2000)", "T1 sequence (Q6DWJ6 1-353)": "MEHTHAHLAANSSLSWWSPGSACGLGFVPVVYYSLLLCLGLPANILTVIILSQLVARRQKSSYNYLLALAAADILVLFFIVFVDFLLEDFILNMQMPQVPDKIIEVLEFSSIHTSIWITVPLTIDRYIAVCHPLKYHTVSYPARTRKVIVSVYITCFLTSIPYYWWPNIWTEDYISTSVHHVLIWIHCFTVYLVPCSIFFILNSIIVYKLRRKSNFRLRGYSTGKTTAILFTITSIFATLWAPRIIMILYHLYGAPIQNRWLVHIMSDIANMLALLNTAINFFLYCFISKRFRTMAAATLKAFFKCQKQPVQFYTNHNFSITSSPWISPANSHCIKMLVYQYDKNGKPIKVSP", "experiment": "BRET G protein activation (dissociation) assay, G12, HEK293A", "settings": "for G protein activation, G12: individual replicates", "method": "(§1) Primary screening and pharmacological characterization of compounds were performed using a CHO-K1 cell line that stably expresses human GPR139 (GPR139-CHOk1). The GPR139-CHOk1 cell line was kindly provided by H. Lundbeck A/S, Denmark[24]. GPR139-CHOk1 cells were grown in Ham’s F-12 Kaighn’s Modification Medium (ThermoFisher #21127030) supplemented with 10% dialyzed fetal bovine serum (US origin, ThermoFisher #26400044), 100 units/mL Penicillin-Streptomycin (ThermoFisher #15140122), and 1 mg/mL Geneticin (ThermoFisher #11811031). […] M1R-CHOk1 cells were purchased from The Missouri S&T cDNA Resource Center (#CEM100TN00). M1R-CHOk1 cells were grown in Ham’s F12 Medium (ThermoFisher #21765029) supplemented with 10% fetal bovine serum (Brazilian origin, ThermoFisher #10270106), 100 units/mL Penicillin-Streptomycin, and 0.25 mg/mL Geneticin. HEK293A cells transiently transfected with GPR139 were used for additional pharmacological assessment of signaling pathways activated by GPR139. HEK239A cells were generously provided by Dr. Asuka Inoue, Tohoku University, Japan. HEK293A cells were grown in Dulbecco’s Modified Eagle Medium (ThermoFisher #31966047) supplemented with 10% dialyzed fetal bovine serum and 100 units/mL Penicillin-Streptomycin. Cell lines were maintained at 37 °C in humidified incubator equilibrated with 5% CO2.\n(§2) The G protein dissociation assay developed by the lab of Kirill A. Martemyanov was used to measure the coupling of multiple G proteins by GPR139[57]. The assay was performed as described previously with minor modifications. HEK293A cells were reverse transfected 20–24 h prior to assay. 50,000 cells were plated in each well of white opaque tissue culture treated 96-well plates (PerkinElmer #6005680) previously coated with poly-D-lysine. Transfection solutions were prepared as described, and 10 µL transfection solution was mixed with 100 µL cells in each well. The cells in each well were transfected with 18.9 ng GPR139, 6.3 ng Venus 1-155 Gγ2, 6.3 ng Venus 159-239 Gβ1, 6.3 ng masGRK3ct-NanoLuc and 12.6 ng Gαi2, 12.6 ng Gαi3, 12.6 ng GαoA, 12.6 ng Gαq or 25.2 ng Gα12 using 375 nL Lipofectamine 2000 Transfection Reagent. Transfections with Gαq and Gα12 contained 6.3 ng DNA of the active subunit S1 of pertussis toxin (PTX-S1). Each transfection was normalized to 150 ng total DNA with pcDNA3.1. The BRET biosensors were a kind gift from the Martemyanov lab. On the day of the experiment the cells were washed with HEPES buffer. Test compounds were diluted in HEPES buffer from DMSO stocks (final DMSO concentration of maximally 0.3%). NanoLuc Luciferase substrate NanoGlo—furimazine (Promega #N1120) was diluted 1000-fold (final) in HEPES buffer. NanoGlo and test compounds were added, and measurements were performed after 10 s for Gi3, 15 s for Gi2 and GoA, 20 s for Gq, and 90 s for G12—the timepoint where maximal signal occurred with each G protein, ensuring proper determination of the potency for the G protein coupling. Simultaneous dual emission was measured at 535 nm and 475 nm on LUMIstar Omega Microplate Reader (BMG Labtech) at room temperature. The BRET ratio of 535 nm/475 nm (Venus/NanoLuc), reflecting the dissociation of the G protein heterotrimer, was used to determine the G protein activation. The basal BRET ratio obtained with buffer condition was subtracted from the absolute BRET ratio at a given test compound concentration, and the responses were normalized to the one obtained with 10 µM JNJ-63533054 for the activation of Gi2.\n(§3) Pharmacological data and statistical analyses were performed in GraphPad Prism v9–10 (Graphpad Software Inc., San Diego, CA), which are also specifically described in the figure and table legends. […]"}, "GPR139 (Gq activation)": {"biological_target": "T2, GPR139 (Gq activation) (Homo sapiens, UniProt Q6DWJ6)", "T2 construct": "expressed in transfected cells; host or cells: HEK293A (transient, Lipofectamine 2000)", "T2 sequence (Q6DWJ6 1-353)": "T1 sequence (Q6DWJ6 1-353)", "experiment": "BRET G protein activation (dissociation) assay, Gq, HEK293A", "settings": "for G protein activation, Gq: individual replicates", "method": "as §1, §2, §3"}, "GPR139 (Gi2 activation)": {"biological_target": "T3, GPR139 (Gi2 activation) (Homo sapiens, UniProt Q6DWJ6)", "T3 construct": "expressed in transfected cells; host or cells: HEK293A (transient, Lipofectamine 2000)", "T3 sequence (Q6DWJ6 1-353)": "T1 sequence (Q6DWJ6 1-353)", "experiment": "BRET G protein activation (dissociation) assay, Gi2, HEK293A", "settings": "for G protein activation, Gi2: individual replicates", "method": "as §1, §2, §3"}, "[1]": {"settings": "HEK293-A, normalized to JNJ-63533054 (JNJ(S))"}}, "note": "Where “and” joins values, the source holds several entries; their conditions need not be identical. Equal entries are not always repeated.", "data": [{"smiles": "C[C@@H](NC(=O)CNC(=O)c1cccc(Cl)c1)c1ccccc1", "note": "[JNJ(R), reference compound]", "values": [{"measurement": "Emax", "setting": "GPR139 (G12 activation); [1]", "result": "48 ± 3", "unit": "%"}, {"measurement": "EC50", "setting": "GPR139 (G12 activation); Supplementary Table 6, read-out: pEC50 G12 (converted)", "result": 3.98, "unit": "µM"}, {"measurement": "G protein activation, G12", "setting": "GPR139 (G12 activation); log [compound] M -4.5", "result": "45 % of JNJ-63533054 at Gi2 and 42 % of JNJ-63533054 at Gi2 and 41 % of JNJ-63533054 at Gi2"}, {"measurement": "G protein activation, G12", "setting": "GPR139 (G12 activation); log [compound] M -5.0", "result": "37 % of JNJ-63533054 at Gi2 and 34 % of JNJ-63533054 at Gi2 and 33 % of JNJ-63533054 at Gi2"}, {"measurement": "G protein activation, G12", "setting": "GPR139 (G12 activation); log [compound] M -5.5", "result": "24 % of JNJ-63533054 at Gi2 (2×) and 19 % of JNJ-63533054 at Gi2"}, {"measurement": "G protein activation, G12", "setting": "GPR139 (G12 activation); log [compound] M -6.0", "result": "13 % of JNJ-63533054 at Gi2 and 11 % of JNJ-63533054 at Gi2 and 9 % of JNJ-63533054 at Gi2"}, {"measurement": "G protein activation, G12", "setting": "GPR139 (G12 activation); log [compound] M -6.5", "result": "7 % of JNJ-63533054 at Gi2 and 5 % of JNJ-63533054 at Gi2 and 2.85 % of JNJ-63533054 at Gi2"}, {"measurement": "G protein activation, G12", "setting": "GPR139 (G12 activation); log [compound] M -7.0", "result": "1.33 % of JNJ-63533054 at Gi2 and 4 % of JNJ-63533054 at Gi2 and 0.154 % of JNJ-63533054 at Gi2"}, {"measurement": "G protein activation, G12", "setting": "GPR139 (G12 activation); log [compound] M -7.5", "result": "0.474 % of JNJ-63533054 at Gi2 and 6 % of JNJ-63533054 at Gi2 and 1.7 % of JNJ-63533054 at Gi2"}, {"measurement": "G protein activation, G12", "setting": "GPR139 (G12 activation); log [compound] M -8.0", "result": "-0.892 % of JNJ-63533054 at Gi2 and 6 % of JNJ-63533054 at Gi2 and 2.38 % of JNJ-63533054 at Gi2"}, {"measurement": "Emax", "setting": "GPR139 (Gq activation); [1]", "result": "22 ± 8", "unit": "%"}, {"measurement": "EC50", "setting": "GPR139 (Gq activation); Supplementary Table 6", "result": 10, "unit": "µM"}, {"measurement": "G protein activation, Gq", "setting": "GPR139 (Gq activation); log [compound] M -4.5", "result": "17 % of JNJ-63533054 at Gi2 and 24 % of JNJ-63533054 at Gi2 and 7.59 % of JNJ-63533054 at Gi2"}, {"measurement": "G protein activation, Gq", "setting": "GPR139 (Gq activation); log [compound] M -5.0", "result": "12 % of JNJ-63533054 at Gi2 and 15 % of JNJ-63533054 at Gi2 and 4 % of JNJ-63533054 at Gi2"}, {"measurement": "G protein activation, Gq", "setting": "GPR139 (Gq activation); log [compound] M -5.5", "result": "8 % of JNJ-63533054 at Gi2 and 7 % of JNJ-63533054 at Gi2 and -2.15 % of JNJ-63533054 at Gi2"}, {"measurement": "G protein activation, Gq", "setting": "GPR139 (Gq activation); log [compound] M -6.0", "result": "6.62 % of JNJ-63533054 at Gi2 and 3 % of JNJ-63533054 at Gi2 and -1.3 % of JNJ-63533054 at Gi2"}, {"measurement": "G protein activation, Gq", "setting": "GPR139 (Gq activation); log [compound] M -6.5", "result": "3.64 % of JNJ-63533054 at Gi2 and 0.578 % of JNJ-63533054 at Gi2 and -0.535 % of JNJ-63533054 at Gi2"}, {"measurement": "G protein activation, Gq", "setting": "GPR139 (Gq activation); log [compound] M -7.0", "result": "0.442 % of JNJ-63533054 at Gi2 and -1.25 % of JNJ-63533054 at Gi2 and -2 % of JNJ-63533054 at Gi2"}, {"measurement": "G protein activation, Gq", "setting": "GPR139 (Gq activation); log [compound] M -7.5", "result": "0.442 % of JNJ-63533054 at Gi2 and 0.122 % of JNJ-63533054 at Gi2 and 2.16 % of JNJ-63533054 at Gi2"}, {"measurement": "G protein activation, Gq", "setting": "GPR139 (Gq activation); log [compound] M -8.0", "result": "-2 % of JNJ-63533054 at Gi2 and -0.213 % of JNJ-63533054 at Gi2 and 1.37 % of JNJ-63533054 at Gi2"}, {"measurement": "Emax", "setting": "GPR139 (Gi2 activation); [1]", "result": "86 ± 4", "unit": "%"}, {"measurement": "EC50", "setting": "GPR139 (Gi2 activation); Supplementary Table 6, read-out: pEC50 Gi2 (converted)", "result": 3.98, "unit": "µM"}, {"measurement": "G protein activation, Gi2", "setting": "GPR139 (Gi2 activation); log [compound] M -4.5", "result": "73 % of JNJ-63533054 at Gi2 and 81 % of JNJ-63533054 at Gi2 and 77 % of JNJ-63533054 at Gi2"}, {"measurement": "G protein activation, Gi2", "setting": "GPR139 (Gi2 activation); log [compound] M -5.0", "result": "61 % of JNJ-63533054 at Gi2 and 62 % of JNJ-63533054 at Gi2 and 65 % of JNJ-63533054 at Gi2"}, {"measurement": "G protein activation, Gi2", "setting": "GPR139 (Gi2 activation); log [compound] M -5.5", "result": "41 % of JNJ-63533054 at Gi2 and 43 % of JNJ-63533054 at Gi2 and 42 % of JNJ-63533054 at Gi2"}, {"measurement": "G protein activation, Gi2", "setting": "GPR139 (Gi2 activation); log [compound] M -6.0", "result": "16 % of JNJ-63533054 at Gi2 and 23 % of JNJ-63533054 at Gi2 and 21 % of JNJ-63533054 at Gi2"}, {"measurement": "G protein activation, Gi2", "setting": "GPR139 (Gi2 activation); log [compound] M -6.5", "result": "6 % of JNJ-63533054 at Gi2 and 7 % of JNJ-63533054 at Gi2 and 10 % of JNJ-63533054 at Gi2"}, {"measurement": "G protein activation, Gi2", "setting": "GPR139 (Gi2 activation); log [compound] M -7.0", "result": "-0.885 % of JNJ-63533054 at Gi2 and 0.48 % of JNJ-63533054 at Gi2 and 10 % of JNJ-63533054 at Gi2"}, {"measurement": "G protein activation, Gi2", "setting": "GPR139 (Gi2 activation); log [compound] M -7.5", "result": "0.698 % of JNJ-63533054 at Gi2 and -1 % of JNJ-63533054 at Gi2 and 11 % of JNJ-63533054 at Gi2"}, {"measurement": "G protein activation, Gi2", "setting": "GPR139 (Gi2 activation); log [compound] M -8.0", "result": "-0.866 % of JNJ-63533054 at Gi2 and -1.55 % of JNJ-63533054 at Gi2 and 11 % of JNJ-63533054 at Gi2"}]}]}
